Results as given in patent US5370997A, “Hyperthermostable alpha-amylase” (Novo Nordisk A/S, priority 1989, dated 1994).

How the values were obtained:
[1] = target: extracellular α-amylase from Pyrococcus furiosus (partially purified) (Pyrococcus furiosus, UniProt Q8U3I9); conditions: EDTA concentration not given
Description: In order to conduct physiochemical investigations the extracellular amylase was partially purified by gelfiltration. All experiments were performed in the absence of metal ions and under aerobic conditions.

[2] = target: α-amylase from Pyrococcus woesei (partially purified) (Pyrococcus woesei, UniProt Q7LYT7); experiment: biochemical; conditions: 40 min, pH 5.5, read-out: enzyme activity measured in percent
Sequence of α-amylase from Pyrococcus woesei (partially purified) (Q7LYT7 26-460): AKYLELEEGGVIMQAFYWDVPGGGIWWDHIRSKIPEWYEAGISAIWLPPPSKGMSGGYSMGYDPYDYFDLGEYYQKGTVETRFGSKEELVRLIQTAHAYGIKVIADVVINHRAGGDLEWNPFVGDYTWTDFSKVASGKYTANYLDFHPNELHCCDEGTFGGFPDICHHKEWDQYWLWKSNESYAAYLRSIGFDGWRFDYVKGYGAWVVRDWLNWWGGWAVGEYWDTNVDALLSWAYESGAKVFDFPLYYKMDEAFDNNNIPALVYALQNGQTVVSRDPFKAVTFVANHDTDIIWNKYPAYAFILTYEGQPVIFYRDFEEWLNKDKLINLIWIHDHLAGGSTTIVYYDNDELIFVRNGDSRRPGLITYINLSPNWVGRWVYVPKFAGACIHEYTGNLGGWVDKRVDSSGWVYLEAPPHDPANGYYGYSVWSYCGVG
Description: The influence of metal cations and EDTA on the activity of α-amylase from P. woesei was performed with enzyme which was partially purified by gelfiltration on a Supsrose 12 column (Pharmacia, Sweden), see Table 2. The fractions containing α-amylase were collected and concentrated 4-fold. 25 μl of enzyme (400 U/l) were added to 100 μl of sodium acetate buffer (50 mM, pH 5.5) containing 1% (w/v) starch. Metal cations, which were dissolved in sodium acetate buffer (100 mM, pH 5.5), were added in various concentrations. Incubation was conducted in a glycerin bath (100° C.) for 40 min. The reducing sugars were finally detected as described by Bergmeyer and Grassi (supra). The values represent the enzyme activity measured in percent.

Sequence of extracellular α-amylase from Pyrococcus furiosus (partially purified) (Q8U3I9 39-473): as the sequence (Q7LYT7 26-460) above

In the case of `O=C(O)CN(CCN(CC(=O)O)CC(=O)O)CC(=O)O` [EDTA], the “influence on amylase activity” value [1] is reported as “did not have any influence”, the remaining activity at 1000 µM [2] is reported as 95% and the remaining activity at 2000 µM [2] is reported as 85%. The remaining activity at 5000 µM [2] was 60%.
